According to US4082751A, “Therapeutic agents” (priority 1976, dated 1978):
Read-outs that look alike come from different tables or passages of the source.

How the values were obtained:
[1] = test system: reagin-mediated Passive Cutaneous Anaphylaxis (PCA) response; test: Reagin-mediated rat Passive Cutaneous Anaphylaxis (PCA) screening test; assay type: in vivo, rat (Sprague-Dawley)
Description: The reagin-mediated rat Passive Cutaneous Anaphylaxis (PCA) screening test used to evaluate the present compounds is generally regarded as one of the best animal models for use in predicting the antiallergy activity of test compounds in man. Briefly, the method consists of passive sensitization of skin sites on the test animals with reaginic antibodies followed after 24 hours by administration of the test drug and antigen challenge. The allergic response is measured by use of Evans'blue dye and is evaluated by the spot diameter at the injection site. Details of the test are provided below.
Ovalbumin (5 times crystalline) Dinitrobenzene sulfonic acid, Na^+ salt Bordetella pertussis vaccine - phase I 10-20 × 10 ^9 killed organisms/ml. Aluminum hydroxide gel - 10 mg./ml. Potassium carbonate Male Sprague-Dawley (S/D) Rats - 200 gms. Female Sprague-Dawley Rats - 100 gms. Tris Buffered Saline (TBS) - 0.02 M 2-amino-2-hydroxymethyl-1,3-propanediol (Tris), 0.15 M NaCL, pH 8.2
A substituted ovalbumin antigen is used both as immunogen and challenging antigen. The antigen is prepared as follows: 500 mg. ovalbumin (EA) and 500 mg. K2 CO3 are dissolved in 25 ml. distilled H2 O and stirred at room temperature for 5 minutes. Five hundred (500)mg. dinitrobenzene sulfonic acid, Na^+ salt, (previously recrystallized from hot absolute ethanol) is then added slowly with continued stirring. The reaction mixture is then immediately placed in the dark and allowed to proceed for 2 hours with constant stirring. After 2 hours the mixture is placed in suitable dialysis tubing and dialyzed against 5 changes (4 liters each) of distilled H2 O at 5° C. After dialysis the product is lyophilized and stored at room temperature in a brown or amber container. The antigen obtained will appear as a light yellow, amorphous solid which is very soluble in water or saline. It is designated as DNP denatured ovalbumin (DNP-d EA).
Adult, male Sprague-Dawley rats are used as a source of reagin-rich antisera for the PCA model. Immunization is by a combinatin of DNP-d EA on Al(OH) 3 gel and B. pertussis vaccine. Preparation of the DNP-d EA - gel immunogen is as follows: Dissolve the DNP-d EA in TBS so as to give a concentration of 10 mg./ml. Slowly add 1 ml. of this solution to 10 ml. Al(OH) 3 gel (10 mg. solids/ml.) with constant stirring at room temperature. Stir the mixture an additional 30 minutes to insure a uniform adsorption of antigen on gel.
The resulting preparation is then used in combination with phase I B. pertussis vaccine to immunize male S/D rats as follows: For each rat administer 0.1 ml. DNP-d EA - gel suspension intramuscularly in each hind leg (200 μg DNP-d EA and 2 mg. gel total dose). Follow these injections by the intraperitoneal administration of 1.0 ml. B. pertussis vaccine (10-20 × 10 ^9 organisms). The use of light ether anesthesia during this procedure is recommended to insure proper intramuscular and intraperitoneal injections. 9 days following immunization (but no longer than 10) the animals are exsanguinated by cardiac puncture or abdominal aorta cannulation under ether or pentobarbital anesthesia. The collected whole blood is allowed to clot, the serum separated by centrifugation and the individual serum samples stored frozen until assayed for IgE content.
Individual serum samples should be screened for reaginic antibody concentration before being pooled with other sera, as not all rats respond to immunization procedures with reagin production. At 1:50 saline dilution of serum from each immunized rat is used for this purpose. Intradermal injections of 0.05 ml. of the diluted sera are made in the shaven backs of two small female recipient rats, 100-120 gms. Several serum samples can be tested simultaneously in recipient animals. After a 24 to 48 hour latent period antigen challenge is accomplished by intravenous administration to each rat of 1 mg. DNP-d EA in 0.5 ml. 0.5% Evans' blue dye in saline. […]

[2] = cited from earlier work
[3] = test system: release of mediators, e.g. histamine and SRS-A; conditions: administered to asthmatic patients prior to inhalation of specific antigens; cited from earlier work
[4] = must be administered by inhalation; cited from earlier work
[5] = water solubility of salts; assay type: physicochemical; conditions: salts of 2-(2-n-propoxyphenyl)-5-(5-1H-tetrazolyl)-pyrimidin-4(3H)-one
[6] = po, 10 min before antigen challenge, read-out: ID50, the dose of compound that inhibits 50% of the response, p.o.
[7] = iv, test compounds 1-5 min before antigen challenge, DSCG at time of challenge, read-out: ID50, the dose of compound that inhibits 50% of the response, iv.
[8] = bronchodilators, bronchial asthma

SMILES	ED50 [1, 6] [mg/kg]	also measured
CCC(C)Oc1ccccc1-c1ncc(-c2nnn[nH]2)c(=O)[nH]1 (racemic) [Example 5, (±)-2-(2-sec-Butoxyphenyl)-5-(5-1H-tetrazolyl)pyrimidin-4(3H)-one]	0.05	
O=C(O)c1cc(=O)c2c(OCC(O)COc3cccc4oc(C(=O)O)cc(=O)c34)cccc2o1 [DSCG, disodium cromoglycate]	> 30	cardiovascular side effects ([2]; in vivo): without cardiovascular side effects; inhibition of release of mediators [3]: inhibits the release of mediators; ED50 [1, 7]: 0.3 mg/kg; oral absorption [4]: not orally absorbed
CCOc1ccccc1-c1ncc(-c2nnn[nH]2)c(=O)[nH]1 [Example 1, 2-(2-Ethoxyphenyl)-5-(5-1H-tetrazolyl)pyrimidin-4-(3H)-one]	0.09	ED50 [1, 7]: 0.02 mg/kg
CCCOc1ccccc1-c1ncc(-c2nnn[nH]2)c(=O)[nH]1 [Example 2, 2-(2-n-Propoxyphenyl)-5-(5-1H-tetrazolyl)pyrimidin-4(3H)-one]	0.04	
CC(C)Oc1ccccc1-c1ncc(-c2nnn[nH]2)c(=O)[nH]1 [Example 3, 2-(2-Isopropoxyphenyl)-5-(5-1H-tetrazolyl)pyrimidin-4(3H)-one]	~0.04	
CCCCOc1ccccc1-c1ncc(-c2nnn[nH]2)c(=O)[nH]1 [Example 4, 2-(2-n-Butoxyphenyl)-5-(5-1H-tetrazolyl)pyrimidin-4(3H)-one]	~0.07	
COc1ccccc1-c1ncc(-c2nnn[nH]2)c(=O)[nH]1 [Example 6, 2-(2-Methoxyphenyl)-5-(5-1H-tetrazolyl)pyrimidin-4(3H)-one]	~0.1	
CC(C)COc1ccccc1-c1ncc(-c2nnn[nH]2)c(=O)[nH]1 [Example 7, 2-(2-Isobutoxyphenyl)-5-(5-1H-tetrazolyl)pyrimidin-4(3H)-one]	~0.1	
C=CCOc1ccccc1-c1ncc(-c2nnn[nH]2)c(=O)[nH]1 [Example 8, 2-(2-Allyloxyphenyl)-5-(5-1H-tetrazolyl)pyrimidin-4(3H)-one]	0.24	
O=c1[nH]c(-c2ccccc2OCC2CC2)ncc1-c1nnn[nH]1 [Example 9, 2-(2-Cyclopropylmethoxyphenyl)-5-(5-1H-tetrazolyl)pyrimidin-4(3H)-one]	0.07	
CCCOc1ccc(OC)cc1-c1ncc(-c2nnn[nH]2)c(=O)[nH]1 [Example 10, 2-(5-Methoxy-2-n-propoxyphenyl)-5-(5-1H-tetrazolyl)pyrimidin-4(3H)-one]	0.03	
CCCOc1ccc([N+](=O)[O-])cc1-c1ncc(-c2nnn[nH]2)c(=O)[nH]1 [Example 14, 2-(5-Nitro-2-n-propoxyphenyl)-5-(5-1H tetrazolyl)pyrimidin-4(3H)-one]	5	
CCCOc1ccc(N)cc1-c1ncc(-c2nnn[nH]2)c(=O)[nH]1 [Example 15, 2-(5-Amino-2-n-propoxyphenyl)-5-(5-1H-tetrazolyl)pyrimidin-4(3H)-one]	~0.1	
CCCOc1ccc(N(C)C)cc1-c1ncc(-c2nnn[nH]2)c(=O)[nH]1 [Example 16, 2-(5-Dimethylamino-2-n-propoxyphenyl)-5-(5-1H-tetrazolyl)pyrimidin-4(3H)-on]	~0.4	
CN1[C@@H]2CC[C@H]1C[C@@H](OC(=O)C(CO)c1ccccc1)C2 (stereo partly drawn) [atropine]		undesirable side effects [2, 8]: cardiac stimulation and gastrointestinal distress
CCCOc1ccccc1-c1ncc(-c2nnn[nH]2)c(=O)[nH]1 [diethanolamine, 2-(2-n-propoxyphenyl)-5-(5-1H-tetrazolyl)-pyrimidin-4(3H)-one]		water solubility [5]: water soluble
CNC[C@H](O)c1ccc(O)c(O)c1 [epinephrine]		undesirable side effects [2, 8]: cardiac stimulation and gastrointestinal distress
CC(C)NCC(O)c1ccc(O)c(O)c1 (stereo not drawn) [isoproterenol]		undesirable side effects [2, 8]: cardiac stimulation and gastrointestinal distress
Cn1c(=O)c2[nH]cnc2n(C)c1=O [theophylline]		undesirable side effects ([2]; in vivo): cardiac stimulation and gastrointestinal distress
